Common to all, as to assay type: functional, cell-based
Test [1] concerns OVCAR-3. Put plainly: Growth inhibition of human OVCAR3 cells incubated for 7 days in absence of 400 U/ml IFNalpha by MTS assay. The following applies: OVCAR-3, 168 h. A general note: Tetrazolium dyes change colour on reduction, which living cells bring about.
The test system of test [2] is A549. Put plainly: Increase in DR5 protein expression in human A549 cells at 14 uM incubated for 4 days in presence of 200 U/ml IFNalpha by Western blot analysis.
In test [3] the test system is A549. Put plainly: Growth inhibition of human A549 cells at 14 uM incubated for 4 days in presence of 200 U/ml IFNalpha and in absence of 30 nM 14-3-3zeta siRNA by MTS assay.
Test [4] relates to A549. Nature of the test: Growth inhibition of human A549 cells incubated for 6 days in absence of 400 U/ml IFNalpha by MTS assay. Particulars: A549, 144 h.
For test [5], the system named is A549. Nature of the test: Increase in DR5 protein expression in human A549 cells at 14 uM incubated for 4 days in absence of 200 U/ml IFNalpha by Western blot analysis. On the technique in general: Immunoblotting shows a protein as a band on a membrane.
Test [6] concerns OVCAR-3. Nature of the test: Growth inhibition of human OVCAR3 cells incubated for 7 days in presence of 400 U/ml IFNalpha by MTS assay. Particulars: OVCAR-3, 168 h.
For test [7], the system named is A549. Nature of the test: Growth inhibition of human A549 cells incubated for 6 days in presence of 400 U/ml IFNalpha by MTS assay. Particulars: A549, 144 h.
For test [8], the system named is A549. Nature of the test: Growth inhibition of human A549 cells at 14 uM incubated for 4 days in presence of 200 U/ml IFNalpha and 30 nM 14-3-3zeta siRNA by MTS assay.
Test [9] has as its system A549. Put plainly: Induction of apoptosis in human A549 cells assessed as increase in PARP cleavage at 14 uM incubated for 4 days in presence of 200 U/ml IFNalpha by Western blot analysis.
The test system of test [10] is A549. Nature of the test: Increase in DR5 protein expression in human A549 cells at 13 uM incubated for 4 days in presence of 200 U/ml IFNalpha by Western blot analysis.
Test [11] relates to A549. Put plainly: Induction of apoptosis in human A549 cells assessed as increase in PARP cleavage at 13 uM incubated for 4 days in absence of 200 U/ml IFNalpha by Western blot analysis.
The subject of test [12] is A549. Nature of the test: Induction of apoptosis in human A549 cells assessed as increase in PARP cleavage at 13 uM incubated for 4 days in presence of 200 U/ml IFNalpha by Western blot analysis.
Test [13] has as its system A549. Nature of the test: Growth inhibition of human A549 cells at 13 uM incubated for 4 days in presence of 200 U/ml IFNalpha and 30 nM 14-3-3zeta siRNA by MTS assay.
Test [14] deals with A549. Nature of the test: Growth inhibition of human A549 cells at 13 uM incubated for 4 days in presence of 200 U/ml IFNalpha and in absence of 30 nM 14-3-3zeta siRNA by MTS assay.
Test [15] concerns A549. Nature of the test: Increase in DR5 protein expression in human A549 cells at 13 uM incubated for 4 days in absence of 200 U/ml IFNalpha by Western blot analysis.
For test [16], the system named is A549. Put plainly: Induction of apoptosis in human A549 cells assessed as increase in PARP cleavage at 14 uM incubated for 4 days in absence of 200 U/ml IFNalpha by Western blot analysis.

The source made the active and inactive calls. No cut-off for these calls is given here.

As for `COC[C@@]1(O)CC[C@@H]2/C1=C\[C@@]1(C)CCC(C(C)C)=C1[C@@H](O[C@H]1O[C@@H]3COC(C)(C)O[C@H]3[C@H](O)[C@H]1O)[C@H](O)[C@@H]2C`, the EC50 is above 200 µM in [1], above 200 µM in test [4], 3.3 µM in test [6] and 11 µM in [7]. Also, the result in [2], in [5] and in test [9] was Active. Also, in [3], the “growth inhibition (GI)” value is “Active”. For the same compound, the “growth inhibition (GI)” value in test [8] was “inactive”.
As for `COC[C@@]1(OC)CC[C@@H]2/C1=C\[C@@]1(C)CCC(C(C)C)=C1[C@@H](O[C@H]1O[C@@H]3COC(C)(C)O[C@H]3[C@H](O)[C@H]1O)[C@H](O)[C@@H]2C`, the EC50 was 140 µM in [1], 170 µM in test [4], above 40 µM in [6] and above 40 µM in test [7].
As for `COC[C@H]1O[C@H](O[C@@H]2C3=C(C(C)C)CC[C@]3(C)/C=C3\[C@@H](CC[C@]3(O)COC)[C@@H](C)[C@H]2O)[C@H](O)[C@H]2O[C@H]3O[C@]21O[C@@]3(C)[C@@H]1CO1`, the outcome in [10], in test [12] and in [15] was Active. The EC50 in [1] is 40 µM; in test [4], 125 µM; in [6], 4.6 µM; in test [7], 17 µM. For the same compound, the result in test [11] was inactive. Also, the “growth inhibition (GI)” value in test [13] was “inactive”. For the same compound, in [14], the “growth inhibition (GI)” value was “Active”.
Consider `COC[C@H]1CC[C@@H]2/C1=C\[C@@]1(C)CCC(C(C)C)=C1[C@@H](O[C@H]1O[C@@H]3COC(C)(C)O[C@H]3[C@H](O)[C@H]1O)[C@H](O)[C@@H]2C`, for which the 50% effective concentration (EC50) was determined as 29 µM in test [1], 33 µM in test [4], 18 µM in [6] and 27 µM in test [7]. The result in test [16] was inactive.

Usually EC50 stands for the concentration needed to bring the measured effect to its halfway point.

Source of the values: ChEMBL document CHEMBL4184246 (Bioorg Med Chem Lett, 2018).
